Data: PubChem BioAssay (NCI)
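All cell lines were grown in 96-well plates and treated with compound for 48 hours. Abbreviation: GI50, concentration required for 50% inhibition of growth. Definition used: TGI = concentration required for complete inhibition of growth.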

Tests used:
Experiment in all cases: DTP human tumour cell line panel, 48 h
T-47D breast = tested on: T-47D breast
SF-539 CNS = tested on: SF-539 CNS
NCI-H23 lung = tested on: NCI-H23 lung
SF-268 CNS = tested on: SF-268 CNS
TK-10 renal = tested on: TK-10 renal
SK-MEL-5 melanoma = tested on: SK-MEL-5 melanoma
HCC-2998 colon = tested on: HCC-2998 colon
NCI-H522 lung = tested on: NCI-H522 lung
SR leukemia = tested on: SR leukemia
DU-145 prostate = tested on: DU-145 prostate
OVCAR-8 ovarian = tested on: OVCAR-8 ovarian
A498 renal = tested on: A498 renal
SNB-19 CNS = tested on: SNB-19 CNS
KM12 colon = tested on: KM12 colon
SK-MEL-28 melanoma = tested on: SK-MEL-28 melanoma
SF-295 CNS = tested on: SF-295 CNS
NCI-H226 lung = tested on: NCI-H226 lung
HS 578T breast = tested on: HS 578T breast
HOP-62 NSCLC = tested on: HOP-62 NSCLC
SNB-75 CNS = tested on: SNB-75 CNS
U251 CNS = tested on: U251 CNS
UACC-62 melanoma = tested on: UACC-62 melanoma
OVCAR-5 ovarian = tested on: OVCAR-5 ovarian
CCRF-CEM leukemia = tested on: CCRF-CEM leukemia
OVCAR-4 ovarian = tested on: OVCAR-4 ovarian
HCT-15 colon = tested on: HCT-15 colon
COLO 205 colon = tested on: COLO 205 colon
K-562 leukemia = tested on: K-562 leukemia
SK-MEL-2 melanoma = tested on: SK-MEL-2 melanoma
A549 NSCLC = tested on: A549 NSCLC
LOX IMVI melanoma = tested on: LOX IMVI melanoma
SN12C renal = tested on: SN12C renal
UACC-257 melanoma = tested on: UACC-257 melanoma
HT29 colon = tested on: HT29 colon
NCI-H460 lung = tested on: NCI-H460 lung
CAKI-1 renal = tested on: CAKI-1 renal
MALME-3M melanoma = tested on: MALME-3M melanoma
MCF7 breast = tested on: MCF7 breast
MDA-MB-231 breast = tested on: MDA-MB-231 breast
RXF 393 renal = tested on: RXF 393 renal
SW-620 colon = tested on: SW-620 colon
SK-OV-3 ovarian = tested on: SK-OV-3 ovarian
NCI/ADR-RES ovarian = tested on: NCI/ADR-RES ovarian
HCT-116 colon = tested on: HCT-116 colon
RPMI-8226 leukemia = tested on: RPMI-8226 leukemia
PC-3 prostate = tested on: PC-3 prostate
786-0 renal = tested on: 786-0 renal
BT-549 breast = tested on: BT-549 breast
UO-31 renal = tested on: UO-31 renal
M14 melanoma = tested on: M14 melanoma
OVCAR-3 ovarian = tested on: OVCAR-3 ovarian
MOLT-4 leukemia = tested on: MOLT-4 leukemia
MDA-MB-435 = tested on: MDA-MB-435
HL-60(TB) leukemia = tested on: HL-60(TB) leukemia
IGROV1 ovarian = tested on: IGROV1 ovarian
EKVX NSCLC = tested on: EKVX NSCLC
HOP-92 NSCLC = tested on: HOP-92 NSCLC

O=C(NCCN1CCC(O)CC1)c1cc2c(o1)C(=O)c1ccccc1C2=O
GI50 (T-47D breast): 0.376 µM
TGI (T-47D breast): 1.85 µM
GI50 (SF-539 CNS): 0.211 µM
TGI (SF-539 CNS): 0.471 µM
GI50 (NCI-H23 lung): 0.0536 µM
TGI (NCI-H23 lung): 0.257 µM
GI50 (SF-268 CNS): 1.27 µM
TGI (SF-268 CNS): 3.55 µM
GI50 (TK-10 renal): 2 µM
TGI (TK-10 renal): 3.59 µM
GI50 (SK-MEL-5 melanoma): 0.141 µM
TGI (SK-MEL-5 melanoma): 0.275 µM
GI50 (HCC-2998 colon): 0.208 µM
TGI (HCC-2998 colon): 0.451 µM
GI50 (NCI-H522 lung): 0.284 µM
TGI (NCI-H522 lung): 1.09 µM
GI50 (SR leukemia): 0.396 µM
TGI (SR leukemia): 20.5 µM
GI50 (DU-145 prostate): 0.179 µM
TGI (DU-145 prostate): 0.325 µM
GI50 (OVCAR-8 ovarian): 0.322 µM
TGI (OVCAR-8 ovarian): 1.41 µM
GI50 (A498 renal): 0.17 µM
TGI (A498 renal): 0.34 µM
GI50 (SNB-19 CNS): 0.27 µM
TGI (SNB-19 CNS): 0.956 µM
GI50 (KM12 colon): 0.481 µM
TGI (KM12 colon): 1.87 µM
GI50 (SK-MEL-28 melanoma): 0.549 µM
TGI (SK-MEL-28 melanoma): 1.74 µM
GI50 (SF-295 CNS): 0.149 µM
TGI (SF-295 CNS): 0.288 µM
GI50 (NCI-H226 lung): 0.214 µM
TGI (NCI-H226 lung): 0.492 µM
GI50 (HS 578T breast): 0.322 µM
TGI (HS 578T breast): 0.919 µM
GI50 (HOP-62 NSCLC): 0.23 µM
TGI (HOP-62 NSCLC): 0.51 µM
GI50 (SNB-75 CNS): 0.323 µM
TGI (SNB-75 CNS): 0.797 µM
GI50 (U251 CNS): 0.335 µM
TGI (U251 CNS): 1.14 µM
GI50 (UACC-62 melanoma): 0.164 µM
TGI (UACC-62 melanoma): 0.308 µM
GI50 (OVCAR-5 ovarian): 0.212 µM
TGI (OVCAR-5 ovarian): 0.384 µM
GI50 (CCRF-CEM leukemia): 0.578 µM
TGI (CCRF-CEM leukemia): > 30.1 µM
GI50 (OVCAR-4 ovarian): 0.182 µM
TGI (OVCAR-4 ovarian): 0.436 µM
GI50 (HCT-15 colon): 0.21 µM
TGI (HCT-15 colon): 0.624 µM
GI50 (COLO 205 colon): 0.078 µM
TGI (COLO 205 colon): 0.228 µM
GI50 (K-562 leukemia): 0.378 µM
GI50 (SK-MEL-2 melanoma): 0.518 µM
TGI (SK-MEL-2 melanoma): 2.21 µM
GI50 (A549 NSCLC): 0.213 µM
TGI (A549 NSCLC): 0.514 µM
GI50 (LOX IMVI melanoma): 0.145 µM
TGI (LOX IMVI melanoma): 0.337 µM
GI50 (SN12C renal): 0.175 µM
TGI (SN12C renal): 0.354 µM
GI50 (UACC-257 melanoma): 0.176 µM
TGI (UACC-257 melanoma): 0.391 µM
GI50 (HT29 colon): 0.296 µM
TGI (HT29 colon): 3.43 µM
GI50 (NCI-H460 lung): 0.192 µM
TGI (NCI-H460 lung): 0.39 µM
GI50 (CAKI-1 renal): 1.28 µM
TGI (CAKI-1 renal): 2.66 µM
GI50 (MALME-3M melanoma): 0.0272 µM
TGI (MALME-3M melanoma): 0.0885 µM
GI50 (MCF7 breast): 0.137 µM
TGI (MCF7 breast): 0.338 µM
GI50 (MDA-MB-231 breast): 0.377 µM
TGI (MDA-MB-231 breast): 2.9 µM
GI50 (RXF 393 renal): 1.1 µM
TGI (RXF 393 renal): 2.32 µM
GI50 (SW-620 colon): 0.31 µM
TGI (SW-620 colon): 1.05 µM
GI50 (SK-OV-3 ovarian): 1.51 µM
TGI (SK-OV-3 ovarian): 2.92 µM
GI50 (NCI/ADR-RES ovarian): 1.52 µM
TGI (NCI/ADR-RES ovarian): 5.24 µM
GI50 (HCT-116 colon): 0.301 µM
TGI (HCT-116 colon): 1.05 µM
GI50 (RPMI-8226 leukemia): 1.58 µM
TGI (RPMI-8226 leukemia): 4.72 µM
GI50 (PC-3 prostate): 0.294 µM
TGI (PC-3 prostate): 2.39 µM
GI50 (786-0 renal): 1.44 µM
TGI (786-0 renal): 2.96 µM
GI50 (BT-549 breast): 0.17 µM
TGI (BT-549 breast): 0.326 µM
GI50 (UO-31 renal): 0.666 µM
TGI (UO-31 renal): 1.84 µM
GI50 (M14 melanoma): 0.123 µM
TGI (M14 melanoma): 0.268 µM
GI50 (OVCAR-3 ovarian): 0.242 µM
TGI (OVCAR-3 ovarian): 0.658 µM
GI50 (MOLT-4 leukemia): 0.383 µM
TGI (MOLT-4 leukemia): 1.74 µM
GI50 (MDA-MB-435): 0.177 µM
TGI (MDA-MB-435): 0.324 µM
GI50 (HL-60(TB) leukemia): 0.282 µM
TGI (HL-60(TB) leukemia): 1.02 µM
GI50 (IGROV1 ovarian): 0.3 µM
TGI (IGROV1 ovarian): 1.02 µM
GI50 (EKVX NSCLC): 0.979 µM
TGI (EKVX NSCLC): 2.49 µM
GI50 (HOP-92 NSCLC): 1.48 µM
TGI (HOP-92 NSCLC): 3.19 µM
